# Columns and labels:
# [1] = tested on: Acinetobacter baumannii ATCC 19606 (non-MDR); test: Broth microdilution MIC (Table 2); type: cell-based; conditions: ATCC19606, read-out: MIC
# Description: (§1) Each peptide was formulated in PBS buffer prior to testing. Peptides of SEQ ID NO:5 and SEQ ID NO:8 were brought up in 100% DMSO with 0.002% polysorbate-80 at 1.28 mg/mL (40× the highest final test concentration of 32 mcg/mL). Final test concentration of DMSO was 2.5% in the assay at the first dilution for those two compounds.
# (§2) Mueller Hinton II broth (MHB II; BD; Lot Nos. 6258541 and 7143896) was used for MIC testing of aerobic organisms. 0.002% polysorbate 80 (P80) was added to the test medium.
# (§3) MIC values were determined using a broth microdilution procedure described by CLSI (1, 3). Automated liquid handlers (Multidrop 384, Labsystems, Helsinki, Finland; Biomek 2000 and Biomek FX, Beckman Coulter, Fullerton Calif.) were used to conduct serial dilutions and liquid transfers.
# (§4) To prepare the drug mother plates, which would provide the serial peptide dilutions for the replicate daughter plates, the wells of columns 2-12 of standard 96-well microdilution plates (Costar 3795) were filled with 150 μl of the designated diluent for each row of peptide. The test articles and comparator compounds (300 μl at 40× the highest concentration to be tested) were dispensed into the appropriate wells in column 1. The Biomek 2000 was then used to make 2-fold serial dilutions in the mother plates from column 1 through column 11. The wells of Column 12 contained no drug and served as the organism growth control wells for the assay.
# (§5) The daughter plates were loaded with 185 μL per well of MHB II using the Multidrop 384. The daughter plates were completed on the Biomek FX instrument which transferred 5 uL of peptide solution from each well of a mother plate to the corresponding well of each daughter plate in a single step. A standardized inoculum of each test organism was prepared per CLSI methods. The inoculum for each organism was dispensed into sterile reservoirs divided by length (Beckman Coulter), and the Biomek 2000 was used to inoculate the plates. Daughter plates were placed on the Biomek 2000 work surface in reverse orientation so that inoculation took place from low to high drug concentration. The plates were then inoculated with 10 μL of the inoculum resulting in a final cell density of approximately 5×10^5 CFU/mL, per well.
# (§6) Plates were stacked 3-4 high, covered with a lid on the top plate, placed in plastic bags, and incubated at 35° C. for 16 to 20 hrs. Following incubation, the microplates were removed from the incubator and viewed from the bottom using a plate viewer. […] The MIC was read and recorded as the lowest concentration of peptide that inhibited visible growth of the organism.
# [2] = tested on: Acinetobacter baumannii ATCC BAA-1797 (MDR); test: Broth microdilution MIC (Table 2); type: cell-based; conditions: ATCCBAA1797, read-out: MIC
# Description: as §1, §2, §3, §4, §5, §6
# [3] = tested on: Enterococcus faecalis ATCC 29212 (VSE; QC); test: Broth microdilution MIC (Table 2); type: cell-based; conditions: ATCC29212, read-out: MIC
# Description: as §1, §2, §3, §4, §5, §6
# [4] = tested on: Enterococcus faecalis ATCC 700802 (V583 VRE); test: Broth microdilution MIC (Table 2); type: cell-based; conditions: read-out: MIC
# Description: as §1, §2, §3, §4, §5, §6
# [5] = tested on: Escherichia coli ATCC 25922 (QC); test: Broth microdilution MIC (Table 2); type: cell-based; conditions: ATCC25922
# Description: as §1, §2, §3, §4, §5, §6
# [6] = tested on: Escherichia coli ATCC 35218 (ESBL); test: Broth microdilution MIC (Table 2); type: cell-based; conditions: ATCC35218
# Description: as §1, §2, §3, §4, §5, §6
# [7] = tested on: Pseudomonas aeruginosa ATCC 27853 (non-MDR; QC); test: Broth microdilution MIC (Table 2); type: cell-based; conditions: ATCC27853, read-out: MIC
# Description: as §1, §2, §3, §4, §5, §6
# [8] = tested on: Pseudomonas aeruginosa ATCC BAA-2109 (MDR); test: Broth microdilution MIC (Table 2); type: cell-based; conditions: ATCCBAA2109
# Description: as §1, §2, §3, §4, §5, §6
# [9] = tested on: Staphylococcus aureus ATCC 29213 (MSSA; QC); test: Broth microdilution MIC (Table 2); type: cell-based; conditions: read-out: MIC
# Description: as §1, §2, §3, §4, §5, §6
# [10] = tested on: Streptococcus agalactiae ATCC 13813; test: Broth microdilution MIC (Table 2); type: cell-based; conditions: ATCC13813, read-out: MIC
# Description: as §1, §2, §3, §4, §5, §6
# [11] = tested on: Streptococcus pyogenes ATCC 49399; test: Broth microdilution MIC (Table 2); type: cell-based; conditions: ATCC49399, read-out: MIC
# Description: as §1, §2, §3, §4, §5, §6
# [12] = tested on: Acinetobacter spp. isolates (n = 104); test: Broth microdilution MIC, clinical isolate panel; type: cell-based; conditions: Acinetobacter spp. (n = 104); for MIC: read-out: Mode (MIC)
# Description: (§7) Comparator antibiotics were supplied by Micromyx, and stock solutions were prepared on the first day of testing using solvents recommended by CLSI (1). Stock solutions of all compounds were made at 40× the final testing concentration and stored at −80° C. prior to testing. Information regarding compound source, catalog and lot number, testing concentrations and drug diluent for the comparators and test agent are detailed below in Table 3.
# (§8) The test organisms evaluated in this study consisted of clinical isolates from the Micromyx Repository and reference isolates from the American Type Culture Collection (ATCC; Manassas, Va.). The clinical isolates were obtained from USA hospitals. Upon initial receipt at Micromyx, the organisms were sub-cultured onto an appropriate agar medium. Following incubation, colonies were harvested from these plates and cell suspensions prepared and frozen at −80° C. with a cryoprotectant. Prior to testing, the isolates were streaked from frozen vials onto Trypticase Soy Agar with 5% sheep blood (Becton Dickenson [BD]; Sparks, Md.; Lot Nos. 7173618, 7166759, 7208688, 72144895, 7228505 and Remel Lenexa, Kans. Lot No. 212574). Plates were incubated at 35° C. overnight.
# (§9) Mueller Hinton II broth (MHB II; BD; Lot Nos. 6258541 and 7143896) was used for MIC testing of aerobic organisms.
# as §3
# as §4, with “drug” for “peptide”, “drug.” for “peptide.”
# as §5, with “µL” for “uL”, “drug” for “peptide”, “methods (1).” for “methods.”, “concentration.” for “concentration. The plates were then inoculated with 10 μL of the inoculum resulting in a final cell density of approximately 5×10^5 CFU/mL, per well.”
# as §6, with “drug” for “peptide”
# (§10) Clinical breakpoints to determine percent resistance within a given organism group were obtained from CLSI (3), with the exception of colistin for K. pneumoniae, Enterobacter spp., and E. coli, which are only available from EUCAST.
# [13] = tested on: Escherichia coli isolates (n = 101); test: Broth microdilution MIC, clinical isolate panel; type: cell-based; conditions: Escherichia coli (n = 101)
# Description: as §7, §8, §9, §3
# as §4, with “drug” for “peptide”, “drug.” for “peptide.”
# as §5, with “µL” for “uL”, “drug” for “peptide”, “methods (1).” for “methods.”, “concentration.” for “concentration. The plates were then inoculated with 10 μL of the inoculum resulting in a final cell density of approximately 5×10^5 CFU/mL, per well.”
# as §6, with “drug” for “peptide”
# as §10
# [14] = tested on: Klebsiella pneumoniae isolates (n = 101); test: Broth microdilution MIC, clinical isolate panel; type: cell-based; conditions: Klebsiella pneumoniae (n = 101); for MIC: read-out: Mode (MIC)
# Description: as §7, §8, §9, §3
# as §4, with “drug” for “peptide”, “drug.” for “peptide.”
# as §5, with “µL” for “uL”, “drug” for “peptide”, “methods (1).” for “methods.”, “concentration.” for “concentration. The plates were then inoculated with 10 μL of the inoculum resulting in a final cell density of approximately 5×10^5 CFU/mL, per well.”
# as §6, with “drug” for “peptide”
# as §10
# [15] = tested on: Pseudomonas aeruginosa isolates (n = 109); test: Broth microdilution MIC, clinical isolate panel; type: cell-based; conditions: for % R (percent of isolates resistant, clinical breakpoints): Pseudomonas aeruginosa (n = 109)
# Description: as §7, §8, §9, §3
# as §4, with “drug” for “peptide”, “drug.” for “peptide.”
# as §5, with “µL” for “uL”, “drug” for “peptide”, “methods (1).” for “methods.”, “concentration.” for “concentration. The plates were then inoculated with 10 μL of the inoculum resulting in a final cell density of approximately 5×10^5 CFU/mL, per well.”
# as §6, with “drug” for “peptide”
# as §10
# [16] = tested on: Enterobacter spp. isolates (n = 102); test: Broth microdilution MIC, clinical isolate panel; type: cell-based, Enterobacter aerogenes and E. cloacae; conditions: Enterobacter spp. (n = 102)
# Description: as §7, §8, §9, §3
# as §4, with “drug” for “peptide”, “drug.” for “peptide.”
# The daughter plates were loaded with 185 μL per well of MHB II using the Multidrop 384. The daughter plates were completed on the Biomek FX instrument which transferred 5 µL of drug solution from each well of a mother plate to the corresponding well of each daughter plate in a single step. […]
# Plates were stacked 3-4 high, covered with a lid on the top plate, placed in plastic bags, and incubated at 35° C. for 16 to 20 hrs. […] The MIC was read and recorded as the lowest concentration of drug that inhibited visible growth of the organism. […]
SMILES,MIC50 [12] [mg/L],MIC90 [12] [mg/L],MIC [12] [mg/L],MIC90 [13] [mg/L],"% R (percent of isolates resistant, clinical breakpoints) [14]",MIC50 [14] [mg/L],MIC90 [14] [mg/L],MIC [14] [mg/L],MIC90 ([15]; Pseudomonas aeruginosa) [mg/L],"% R (percent of isolates resistant, clinical breakpoints) [15] [%]","% R (percent of isolates resistant, clinical breakpoints) [16] [%]",other results
C[C@@H](O)[C@H]1C(=O)N2C(C(=O)O)=C(S[C@@H]3CN[C@H](C(=O)N(C)C)C3)[C@H](C)[C@H]12 [Meropenem],> 8,> 8,> 8,0.03,Fifty percent,4,> 8,> 8,> 8,20,3.9,"MIC [1]: 0.5 mg/L; MIC [2]: 0.25 mg/L; MIC [3]: 4 mg/L; MIC [4]: 4 mg/L; MIC [5]: 0.015 mg/L; MIC [6]: 0.015 mg/L; MIC [7]: 0.25 mg/L; MIC [8]: 0.015 mg/L; MIC [9]: 0.12 mg/L; MIC [10]: 0.008 mg/L; MIC [11]: ≤ 0.004 mg/L; % R (percent of isolates resistant, clinical breakpoints) [13]: 1%; MIC50 [13]: 0.015 mg/L; MIC ([13]; read-out: Mode (MIC)): 0.015 mg/L; MIC50 ([15]; Pseudomonas aeruginosa): 0.5 mg/L; MIC ([15]; Pseudomonas aeruginosa, read-out: Mode (MIC)): 0.25 mg/L"
NC[C@H]1O[C@H](O[C@H]2[C@H](O)[C@@H](O[C@H]3O[C@H](CO)[C@@H](O)[C@H](N)[C@H]3O)[C@H](N)C[C@@H]2N)[C@H](N)C[C@@H]1O [Tobramycin],8,> 64,> 64,32,over 60%,16,64,16,4,7.4,3.9,"% R (percent of isolates resistant, clinical breakpoints) [12]: 49.0%"

# From US20200071361A1, “ENGINEERED ANTIMICROBIAL AMPHIPHILIC PEPTIDES AND METHODS OF USE” (priority 2017, published 2020)
